pIC50: −log10 of the molar value.

This experiment concerns the target T1, wild-type FLT3 phosphorylation in Baf3 FLT3 cells (Homo sapiens, UniProt P36888).
T1 construct: host or cells: Baf3 (murine B cell lymphoma line)
T1 sequence (P36888 27-993): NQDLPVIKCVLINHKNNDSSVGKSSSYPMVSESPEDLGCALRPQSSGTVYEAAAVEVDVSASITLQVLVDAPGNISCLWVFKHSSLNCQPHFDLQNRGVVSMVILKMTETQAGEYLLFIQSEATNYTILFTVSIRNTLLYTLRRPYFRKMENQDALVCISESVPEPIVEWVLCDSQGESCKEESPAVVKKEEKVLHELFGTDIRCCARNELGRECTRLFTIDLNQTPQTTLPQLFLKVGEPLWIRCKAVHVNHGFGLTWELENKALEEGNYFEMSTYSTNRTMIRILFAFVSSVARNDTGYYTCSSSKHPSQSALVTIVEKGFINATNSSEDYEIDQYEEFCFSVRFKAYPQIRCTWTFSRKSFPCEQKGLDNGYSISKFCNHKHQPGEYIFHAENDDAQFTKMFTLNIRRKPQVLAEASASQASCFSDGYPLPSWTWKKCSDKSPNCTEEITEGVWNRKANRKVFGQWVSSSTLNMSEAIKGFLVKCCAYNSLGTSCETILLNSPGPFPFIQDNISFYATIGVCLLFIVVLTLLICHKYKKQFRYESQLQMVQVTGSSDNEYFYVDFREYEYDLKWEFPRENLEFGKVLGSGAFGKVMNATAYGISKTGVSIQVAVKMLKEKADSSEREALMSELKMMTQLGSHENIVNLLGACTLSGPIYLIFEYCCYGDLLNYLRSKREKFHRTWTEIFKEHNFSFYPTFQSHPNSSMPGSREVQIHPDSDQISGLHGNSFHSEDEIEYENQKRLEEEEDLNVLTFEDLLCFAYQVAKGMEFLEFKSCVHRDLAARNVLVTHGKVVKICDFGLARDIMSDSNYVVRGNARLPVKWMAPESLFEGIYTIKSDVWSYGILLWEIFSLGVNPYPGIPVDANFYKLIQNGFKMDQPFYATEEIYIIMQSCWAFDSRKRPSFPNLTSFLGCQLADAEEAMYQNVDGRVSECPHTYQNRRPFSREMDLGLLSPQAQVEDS
The experiment can be described thus: Cell-based FLT3 receptor ELISA. The settings on record: FLT ligand-induced FLT3 phosphorylation. The essentials:
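Baf3 cells stably expressing wild-type human FLT3 were starved 16 h in 0.5% serum with 0.01 ng/mL IL-3, given compound for 1 h, then stimulated with 100 ng/mL FLT ligand for 10 min at 37 °C. Lysates were captured on anti-FLT3 plates and probed with HRP anti-phosphotyrosine (4G10), read by chemiluminescence. IC50 came from sigmoidal variable-slope fits of triplicates.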
Background: In an ELISA, binding on a coated surface is turned into a signal by an enzyme label.
As to `COc1cc2ncnc(N3CCC(N(C)C(=O)Nc4ccc(C(C)C)cc4)C3)c2cc1OC` (stereo not shown) [Compound 19, 1-[1-(6,7-Dimethoxy-quinazolin-4-yl)-pyrrolidin-3-yl]-3-(4-isopropyl-phenyl)-1-methyl-urea], the negative logarithm of the IC50 (pIC50) (in general, the negative decadic logarithm of the IC50, by convention in mol/L) is 6.68.

In turn, `CC(C)c1ccc(NC(=O)OC2CCN(c3ncnc4ccc(I)cc34)C2)cc1` (stereo not shown) [Compound 20, (4-Isopropyl-phenyl)-carbamic acid 1-(6-iodo-quinazolin-4-yl)-pyrrolidin-3-yl ester] showed a pIC50 of 7.37.

As for `COc1cc2ncnc(N3CCC(NC(=O)Cc4ccc(C(C)C)cc4)CC3)c2cc1OC` [Compound 21, N-[1-(6,7-Dimethoxy-quinazolin-4-yl)-piperidin-4-yl]-2-(4-isopropyl-phenyl)-acetamide], the pIC50 was 7.20.

Compound `COc1cc2ncnc(N3CCC(C(=O)Nc4ccc(OC(C)C)cc4)CC3)c2cc1OC` [Compound 23, 1-(6,7-Dimethoxy-quinazolin-4-yl)-piperidine-4-carboxylic acid (4-isopropoxy-phenyl)-amide] gave a pIC50 of 6.76.

With `COc1cc2ncc(C#N)c(N3CCC(NC(=O)Nc4ccc(C(C)C)cc4)C3)c2cc1OC` (stereo not shown) [Compound 26, 1-[1-(3-Cyano-6,7-dimethoxy-quinolin-4-yl)-pyrrolidin-3-yl]-3-(4-isopropyl-phenyl)-urea], the negative logarithm of the IC50 (pIC50) is 6.48.

Consider `COc1cc2ncnc(N3CCCC(NC(=O)Nc4ccc(C(C)C)cc4)C3)c2cc1OC` (stereo not shown) [Compound 28, 1-[1-(6,7-Dimethoxy-quinazolin-4-yl)-piperidin-3-yl]-3-(4-isopropyl-phenyl)-urea], for which the negative logarithm of the IC50 (pIC50) is 5.72.

Take `COc1cc2ncc(C#N)c(N3CCC(NC(=O)Nc4ccc(OC(C)C)cc4)C3)c2cc1OC` (stereo not shown) [Compound 29, 1-[1-(3-Cyano-6,7-dimethoxy-quinolin-4-yl)-pyrrolidin-3-yl]-3-(4-isopropoxy-phenyl)-urea]: the pIC50 was 5.51.

`COc1cc2ncnc(N3CCCC(OC(=O)Nc4ccc(C(C)C)cc4)C3)c2cc1OC` (stereo not shown) [Compound 31, (4-Isopropyl-phenyl)-carbamic acid 1-[1-(6,7-dimethoxy-quinazolin-4-yl)-piperidin-3-yl]ester] showed a negative logarithm of the IC50 (pIC50) of 5.96.

In turn, `COc1cc2ncc(C#N)c(N3CCC(OC(=O)Nc4ccc(OC(C)C)cc4)C3)c2cc1OC` (stereo not shown) [Compound 32, (4-Isopropoxy-phenyl)-carbamic acid 1-(3-cyano-6,7-dimethoxy-quinolin-4-yl)-pyrrolidin-3-yl ester] showed a pIC50 of 5.92.

As to `COc1cc2ncnc(N3CCCCC3COC(=O)Nc3ccc(C(C)C)cc3)c2cc1OC` (stereo not shown) [Compound 33, (4-Isopropyl-phenyl)-carbamic acid 1-(6,7-dimethoxy-quinazolin-4-yl)-piperidin-2-ylmethyl ester], the negative logarithm of the IC50 (pIC50) was 6.25.

Take `COc1cc2ncnc(N3CCC(NC(=O)Cc4ccc(C(C)C)cc4)C3)c2cc1OC` (stereo not shown) [Compound 35, N-[1-(6,7-Dimethoxy-quinazolin-4-yl)-pyrrolidin-3-yl]-2-(4-isopropyl-phenyl)-acetamide]: the pIC50 was below 5.52.

Regarding `COc1cc2ncnc(N3CCC(N(C)C(=O)Nc4ccc(OC(C)C)cc4)C3)c2cc1OC` (stereo not shown) [Compound 36, 1-[1-(6,7-Dimethoxy-quinazolin-4-yl)-pyrrolidin-3-yl]-3-(4-isopropoxy-phenyl)-1-methyl-urea], the pIC50 is 5.89.

On to `COc1cc2ncc(C#N)c(N3CCC(OC(=O)Nc4ccc(C(C)C)cc4)C3)c2cc1OC` (stereo not shown) [Compound 37, (4-Isopropyl-phenyl)-carbamic acid 1-(3-cyano-6,7-dimethoxy-quinolin-4-yl)-pyrrolidin-3-yl ester], for which the pIC50 is 5.96.

The values are drawn from US20060281771A1, “SYNERGISTIC MODULATION OF FLT3 KINASE USING AMINOQUINOLINE AND AMINOQUINAZOLINE KINASE MODULATORS” (priority 2005, published 2006).
